Molecular target: T1, NS3 (Hepatitis C virus, UniProt A3EZJ3)
Test: Inhibitory activity against hepatitis C virus (HCV) NS3 protease in the absence of Zn2+
Design: species or system Hepacivirus hominis

T1 sequence (A3EZJ3 whole entry): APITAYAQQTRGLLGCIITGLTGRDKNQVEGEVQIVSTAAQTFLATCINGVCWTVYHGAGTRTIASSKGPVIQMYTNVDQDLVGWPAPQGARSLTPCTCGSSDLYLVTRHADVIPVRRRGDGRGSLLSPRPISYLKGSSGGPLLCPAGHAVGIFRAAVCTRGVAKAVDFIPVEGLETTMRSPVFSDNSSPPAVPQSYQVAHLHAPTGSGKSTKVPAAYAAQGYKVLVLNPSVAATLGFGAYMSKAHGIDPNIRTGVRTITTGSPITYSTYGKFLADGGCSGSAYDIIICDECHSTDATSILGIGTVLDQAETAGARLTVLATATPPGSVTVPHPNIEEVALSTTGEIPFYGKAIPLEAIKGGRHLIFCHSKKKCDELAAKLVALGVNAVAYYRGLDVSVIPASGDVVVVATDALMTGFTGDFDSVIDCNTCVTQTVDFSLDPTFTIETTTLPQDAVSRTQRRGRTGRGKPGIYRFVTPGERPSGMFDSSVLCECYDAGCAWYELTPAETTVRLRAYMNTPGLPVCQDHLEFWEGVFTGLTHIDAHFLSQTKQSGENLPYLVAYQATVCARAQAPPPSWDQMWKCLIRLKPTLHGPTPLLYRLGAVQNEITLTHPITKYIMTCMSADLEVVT

IC50	Structure (SMILES)
167 µM	Cn1c(Cc2nc3cc(C(N)=O)ccc3[nH]2)nc2ccc(C(=O)NC(CP(=O)(O)O)C(=O)O)cc21 (configuration not stated)

Molecular target: T1, NS3
Test: Inhibitory activity against hepatitis C virus (HCV) NS3 protease in the presence of Zn2+.
Design: species or system Hepacivirus hominis

IC50	Structure (SMILES)
16 µM	Cn1c(Cc2nc3cc(C(N)=O)ccc3[nH]2)nc2ccc(C(=O)NCCc3ccc(OCC(=O)O)cc3)cc21
0.51 µM	Cn1c(Cc2nc3ccc(C(N)=O)cc3[nH]2)nc2ccc(C(=O)NC(CCCCCP(=O)(O)O)C(=O)O)cc21 (configuration not stated)
9 µM	Cn1c(Cc2nc3ccc(C(N)=O)cc3[nH]2)nc2ccc(C(=O)NC(Cc3ccc(C(=O)O)c(OCC(=O)O)c3)C(=O)O)cc21 (configuration not stated)
0.82 µM	Cn1c(Cc2nc3cc(C(N)=O)ccc3[nH]2)nc2ccc(C(=O)NC(CCCP(=O)(O)O)C(=O)O)cc21 (configuration not stated)
37 µM	COC(=O)c1ccccc1S(=O)(=O)NC(=O)C[C@H](NC(=O)c1ccc2nc(Cc3nc4ccc(C(N)=O)cc4[nH]3)n(C)c2c1)C(=O)OCc1ccccc1
8.1 µM	COC(=O)c1ccccc1S(=O)(=O)NC(=O)CC(NC(=O)c1ccc2nc(Cc3nc4ccc(C(N)=O)cc4[nH]3)n(C)c2c1)C(=O)O (configuration not stated)
29 µM	COC(=O)c1ccccc1S(=O)(=O)NC(=O)CC[C@H](NC(=O)c1ccc2nc(Cc3nc4cc(C(N)=O)ccc4[nH]3)n(C)c2c1)C(=O)OCc1ccccc1
11 µM	COC(=O)c1ccccc1S(=O)(=O)NC(=O)CC(NC(=O)c1ccc2nc(Cc3nc4ccccc4[nH]3)n(C)c2c1)C(=O)O (configuration not stated)
2.6 µM	Cn1c(Cc2nc3ccc(C(N)=O)cc3[nH]2)nc2ccc(C(=O)NC(CCC(=O)NS(=O)(=O)c3ccccc3C(=O)O)C(=O)O)cc21 (configuration not stated)
3.4 µM	Cn1c(Cc2nc3ccccc3[nH]2)nc2ccc(C(=O)NC(CC(=O)NS(=O)(=O)c3ccccc3C(=O)O)C(=O)O)cc21 (configuration not stated)
1 µM	Cn1c(Cc2nc3ccc(C(N)=O)cc3[nH]2)nc2ccc(C(=O)NC(Cc3ccc(OCC(=O)O)cc3)C(=O)O)cc21 (configuration not stated)
25 µM	Cn1c(Cc2nc3cc(C(N)=O)ccc3[nH]2)nc2ccc(C(=O)NC(Cc3cccc(C(=O)O)c3)C(=O)O)cc21 (configuration not stated)
7.7 µM	Cn1c(Cc2nc3ccccc3[nH]2)nc2ccc(C(=O)NC(CCC(=O)N(CC(=O)O)CC(=O)O)C(=O)O)cc21 (configuration not stated)
0.2 µM	Cn1c(Cc2nc3cc(C(N)=O)ccc3[nH]2)nc2ccc(C(=O)NC(CP(=O)(O)O)C(=O)O)cc21 (configuration not stated)
2 µM	Cn1c(Cc2nc3cc(C(N)=O)ccc3[nH]2)nc2ccc(C(=O)Nc3cc(C(=O)O)cc(C(=O)NC(CCC(=O)O)C(=O)O)c3)cc21 (configuration not stated)
17 µM	Cn1c(Cc2nc3ccc(C(N)=O)cc3[nH]2)nc2ccc(C(=O)Nc3ccc(C(=O)NC(CCC(=O)O)C(=O)O)cc3)cc21 (configuration not stated)
43 µM	Cn1c(Cc2nc3ccc(C(N)=O)cc3[nH]2)nc2ccc(C(=O)Nc3cccc(C(=O)NCCCC(=O)O)c3)cc21
12 µM	Cn1c(Cc2nc3ccccc3[nH]2)nc2ccc(C(=O)NCCc3ccc(OCC(=O)NS(=O)(=O)c4ccccc4)cc3)cc21
6.4 µM	Cn1c(Cc2nc3ccc(C(N)=O)cc3[nH]2)nc2ccc(C(=O)Nc3cccc(C(=O)NC(CCC(=O)O)C(=O)O)c3)cc21 (configuration not stated)
7 µM	Cn1c(Cc2nc3ccc(C(N)=O)cc3[nH]2)nc2ccc(C(=O)NC(Cc3ccc(O)c(C(=O)O)c3)C(=O)O)cc21 (configuration not stated)
4 µM	Cn1c(Cc2nc3cc(C(N)=O)ccc3[nH]2)nc2ccc(C(=O)NC(Cc3ccc(OCC(=O)O)c(C(=O)O)c3)C(=O)O)cc21 (configuration not stated)
1 µM	Cn1c(Cc2nc3cc(C(N)=O)ccc3[nH]2)nc2ccc(C(=O)Nc3cc(C(=O)O)cc(C(=O)NC(CC(=O)O)C(=O)O)c3)cc21 (configuration not stated)
2.6 µM	Cn1c(Cc2nc3cc(C(N)=O)ccc3[nH]2)nc2ccc(C(=O)NC(CC(C(=O)O)C(=O)O)C(=O)O)cc21 (configuration not stated)
12 µM	Cn1c(Cc2nc3ccc(C(N)=O)cc3[nH]2)nc2ccc(C(=O)NC(Cc3cc(OCC(=O)O)ccc3C(=O)O)C(=O)O)cc21 (configuration not stated)
0.87 µM	Cn1c(Cc2nc3cc(C(N)=O)ccc3[nH]2)nc2ccc(C(=O)NC(CCP(=O)(O)O)C(=O)O)cc21 (configuration not stated)
1.6 µM	Cn1c(Cc2nc3cc(C(N)=O)ccc3[nH]2)nc2ccc(C(=O)NC(CC(=O)NS(=O)(=O)c3ccccc3C(=O)O)C(=O)O)cc21 (configuration not stated)
